In US8969366B2, “Substituted pyrimidinylpyrrolopyridinone derivatives, process for their preparation and their use as kinase inhibitors” (Nerviano Medical Sciences S.R.L., priority 2009, dated 2015):
Where a name gives a salt, the structure may show the parent alone.

Tests used:
Assay type in all cases: cell-based
[1] = test system: p-MAPK (T202/Y204) in A375 human melanoma cells, having a mutated B-RAF; assay: p-MAPK (T202/Y204) ArrayScan assay; conditions: A-375, A375 cells treated 1.5 or 2 hours, cytoplasmatic p-MAPK fluorescence intensity, read-out: Array Scan A375 IC50
Description: A375 human melanoma cells, having a mutated B-RAF, are seeded in 384-well poly-lysine coated plates (Matrix) at a density of 1000 cells/well with appropriate medium supplemented with 10% FCS and incubated for 16-24 hours. Cells are treated for 1.5 or 2 hours with increasing doses of compounds (starting dose 10 μM, dilution factor 2.5). At the end of the treatment cells are fixed with p-formaldehyde 3.7% for 15-30 min, then washed twice with D-PBS (80 µl/well) and permeabilized with D-PBS containing 0.1% Triton X-100 and 1% BSA (Sigma-Aldrich) for 15 minutes at room temperature (staining solution). Anti-phospho-MAPK (T202/Y204) monoclonal antibody E10 (Cell Signaling, cat. #9106) diluted 1:100 is added in staining solution and incubated for 1 hour at 37° C. After removal of the primary antibody solution, the anti-mouse Cy™2-conjugated (Green) secondary antibody (Amersham) diluted 1:500 in staining solution containing 2 μg/ml DAPI is added. The plate is incubated for 1 hour at 37° C., washed twice and then red with Cellomics' ArrayScan VTI (4 fields/well, CytoNucTrans algorithm).
The parameter “MEAN_RingAvgIntenCh2”, which measures the mean cytoplasmatic fluorescence intensity associated to p-MAPK staining, is reported as the final result.

[2] = test system: human melanoma cells Mewo (with wild-type B-Raf); assay: In vitro cell proliferation assay, Mewo; conditions: 72 hours treatment, cell number by ATP monitoring system
Description: (§1) In Vitro Cell Proliferation Assay Exponentially growing human melanoma cells A375 (with a mutated B-RAF) and human melanoma cells Mewo (with wild-type B-Raf) were seeded and incubated at 37° C. in a humidified 5% CO2 atmosphere. After 24 hours, scalar doses of the compound were added to the medium and cells oncubated for 72 hours. At the end of treatment, cells were washed and counted. Cell number was determined by a cellular adenosine triphosphate monitoring system. Cell proliferation was compared to control cells and the concentration inhibiting cell growth by 50% was calculated. p-MAPK (T202/Y204) ArrayScan Assay

[3] = test system: human melanoma cells A375 (with a mutated B-RAF); assay: In vitro cell proliferation assay, A375; conditions: A-375, 72 hours treatment, cell number by ATP monitoring system
Description: as §1

Row | Structure (SMILES) | IC50 [1] [nM] | IC50 [2] [nM] | IC50 [3] [nM]
1 | Cn1c2c(c(-c3cccc(NC(=O)Nc4ccc(C(F)(F)F)cc4)c3)c1-c1ccnc(N)n1)C(=O)NCC2 [compound 1, 1-{3-[2-(2-Amino-pyrimidin-4-yl)-1-methyl-4-oxo-4,5,6,7-tetrahydro-1H-pyrrolo-[3,2-c]pyridin-3-yl]-phenyl}-3-(4-trifluoromethyl-phenyl)-urea] | 5600 | > 10000 | 8220
2 | Cn1c(-c2nc(N)ncc2C#Cc2cccc(O)c2)cc2c1CCNC2=O [compound 2, 2-[2-Amino-5-(3-hydroxy-phenylethynyl)-pyrimidin-4-yl]-1-methyl-1,5,6,7-tetrahydro-pyrrolo[3,2-c]pyridin-4-one] | > 10000 | 7910 | 6090
3 | Cn1c(-c2ccnc(NCc3cccc(Cl)c3)n2)cc2c1CCNC2=O [compound 6, 2-[2-(3-Chloro-benzylamino)-pyrimidin-4-yl]-1-methyl-1,5,6,7-tetrahydro-pyrrolo[3,2-c]pyridin-4-one hydrochloride] | 2110 | 5790 | 1760
4 | Cn1c(-c2ccnc(NCc3cc(Br)cs3)n2)cc2c1CCNC2=O [compound 7, 2-{2-[(4-Bromo-thiophen-2-ylmethyl)-amino]-pyrimidin-4-yl}-1-methyl-1,5,6,7-tetrahydro-pyrrolo[3,2-c]pyridin-4-one hydrochloride] | 2140 | 9760 | 2910
5 | Cn1c(-c2ccnc(NC(=O)c3cccc(Cl)c3)n2)cc2c1CCNC2=O [compound 10, 3-Chloro-N-[4-(1-methyl-4-oxo-4,5,6,7-tetrahydro-1H-pyrrolo[3,2-c]pyridin-2-yl)-pyrimidin-2-yl]-benzamide] | 1600 | 1980 | 450
6 | Cn1c(-c2ccnc(NC(=O)c3cccs3)n2)cc2c1CCNC2=O [compound 11, Thiophene-2-carboxylic acid [4-(1-methyl-4-oxo-4,5,6,7-tetrahydro-1H-pyrrolo[3,2-c]pyridin-2-yl)-pyrimidin-2-yl]-amide] | 2910 | 2420 | 1700
7 | Cn1c(-c2ccnc(NC(=O)c3ccsc3)n2)cc2c1CCNC2=O [compound 12, Thiophene-3-carboxylic acid [4-(1-methyl-4-oxo-4,5,6,7-tetrahydro-1H-pyrrolo-[3,2-c]pyridin-2-yl)-pyrimidin-2-yl]-amide] | 2380 | 6410 | 2500
8 | Cc1csc(C(=O)Nc2nccc(-c3cc4c(n3C)CCNC4=O)n2)c1 [compound 14, 4-Methyl-thiophene-2-carboxylic acid [4-(1-methyl-4-oxo-4,5,6,7-tetrahydro-1H-pyrrolo[3,2-c]pyridin-2-yl)-pyrimidin-2-yl]-amide] | 1450 | 2640 | 770

The next molecules have a lower IC50 [1] than those just listed; values first:

Row | IC50 [1] [nM] | IC50 [2] [nM] | IC50 [3] [nM] | Structure (SMILES)
9 | 710 | 4750 | 6460 | Nc1ncc(C#Cc2cccc(O)c2)c(-c2cc3c(n2CCF)CCNC3=O)n1 [compound 3, 2-[2-Amino-5-(3-hydroxy-phenylethynyl)-pyrimidin-4-yl]-1-(2-fluoro-ethyl)-1,5,6,7-tetrahydro-pyrrolo[3,2-c]pyridin-4-one]
10 | 460 | 2450 | 490 | Cn1c(-c2ccnc(NC(=O)c3cc(Br)cs3)n2)cc2c1CCNC2=O [compound 4, 4-Bromo-thiophene-2-carboxylic acid[4-(1-methyl-4-oxo-4,5,6,7-tetrahydro-1H-pyrrolo[3,2-c]pyridin-2-yl)-pyrimidin-2-yl]-amide]
11 | 930 | 820 | 210 | Cn1c(-c2ccnc(C#Cc3cccc(Cl)c3)n2)cc2c1CCNC2=O [compound 8, 2-[2-(3-Chloro-phenylethynyl)-pyrimidin-4-yl]-1-methyl-1,5,6,7-tetrahydro-pyrrolo[3,2-c]pyridin-4-one]
12 | 400 | 1220 | 370 | Cn1c(-c2ccnc(/C=C/c3cccc(Cl)c3)n2)cc2c1CCNC2=O [compound 9, 2-{2-[(E)-2-(3-Chloro-phenyl)-vinyl]-pyrimidin-4-yl}-1-methyl-1,5,6,7-tetrahydro-pyrrolo[3,2-c]pyridin-4-one]
